Experiments:
[1] = Inhibition of bovine trypsin using S-2765 as substrate incubated for 30 mins followed by substrate addition; parameters: species or system Bos taurus
Plasma kallikrein = Plasma kallikrein (Homo sapiens, UniProt P03952); assay: Inhibition of human plasma kallikrein using D-Pro-Phe-Arg-pNA as substrate preincubated for 30 mins followed by substrate addition; format: cell-free
Prothrombin = Prothrombin (Homo sapiens, UniProt P00734); assay: Inhibition of alpha-thrombin (unknown origin) using D-Phe-Pip-Arg-pNA as substrate preincubated for 30 mins followed by substrate addition
[2] = molecular target: Tissue-type plasminogen activator (Homo sapiens, UniProt P00750); assay: Inhibition of tPA (unknown origin) using Methylsulfonyl-D-Phe-Gly-Arg-pNA as substrate preincubated for 30 mins followed by substrate addition
Sequence of Tissue-type plasminogen activator (P00750 whole entry): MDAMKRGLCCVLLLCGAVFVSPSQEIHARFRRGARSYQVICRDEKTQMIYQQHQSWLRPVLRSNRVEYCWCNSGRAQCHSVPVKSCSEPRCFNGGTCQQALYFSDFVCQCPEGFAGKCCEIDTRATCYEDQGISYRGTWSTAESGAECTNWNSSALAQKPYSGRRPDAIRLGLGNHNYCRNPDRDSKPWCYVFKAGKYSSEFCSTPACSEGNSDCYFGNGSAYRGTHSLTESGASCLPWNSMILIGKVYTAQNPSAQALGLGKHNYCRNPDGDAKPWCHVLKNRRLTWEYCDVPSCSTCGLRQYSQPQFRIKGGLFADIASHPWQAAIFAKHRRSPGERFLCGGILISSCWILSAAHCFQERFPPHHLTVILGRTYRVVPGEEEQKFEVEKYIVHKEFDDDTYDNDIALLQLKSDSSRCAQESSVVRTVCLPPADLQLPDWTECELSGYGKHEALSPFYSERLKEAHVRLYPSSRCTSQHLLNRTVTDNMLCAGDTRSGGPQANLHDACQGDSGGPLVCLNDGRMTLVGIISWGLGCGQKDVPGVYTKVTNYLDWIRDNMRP

Coagulation factor XI = Coagulation factor XI (Homo sapiens, UniProt P03951); assay: Inhibition of factor 11a (unknown origin) using S-2366 as substrate incubated for 30 mins followed by substrate addition
Sequence of Coagulation factor XI (P03951 19-387 limits assumed): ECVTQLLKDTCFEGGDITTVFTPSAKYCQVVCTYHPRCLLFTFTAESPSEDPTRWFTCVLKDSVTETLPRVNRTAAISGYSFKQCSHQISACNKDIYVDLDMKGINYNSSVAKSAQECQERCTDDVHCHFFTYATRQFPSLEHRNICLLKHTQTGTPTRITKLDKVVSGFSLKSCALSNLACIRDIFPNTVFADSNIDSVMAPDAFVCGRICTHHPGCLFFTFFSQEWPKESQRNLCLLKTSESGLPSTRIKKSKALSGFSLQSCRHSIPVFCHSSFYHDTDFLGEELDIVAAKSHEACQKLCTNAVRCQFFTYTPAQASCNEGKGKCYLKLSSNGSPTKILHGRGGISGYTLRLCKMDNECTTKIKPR
Sequence of Coagulation factor XI (P03951 388-625 limits assumed): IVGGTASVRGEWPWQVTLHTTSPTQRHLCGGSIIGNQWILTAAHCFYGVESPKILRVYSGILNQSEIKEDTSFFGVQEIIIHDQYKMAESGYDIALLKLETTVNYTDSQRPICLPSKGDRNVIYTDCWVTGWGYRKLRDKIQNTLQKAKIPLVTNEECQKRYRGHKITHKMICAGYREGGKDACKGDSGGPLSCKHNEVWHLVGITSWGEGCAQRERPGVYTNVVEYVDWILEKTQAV

[3] = Half life in rat liver microsomes in presence of NADPH by LC/MS/MS analysis; format: ADME
[4] = Apparent permeability across MDCK cells at 1 uM; format: ADME, cell-based, Canis lupus familiaris; details: dog
Plasminogen = Plasminogen (Homo sapiens, UniProt P00747); assay: Inhibition of Lys-plasmin (unknown origin) using Tosyl-Gly-Pro-Lys-4-nitranilide as substrate preincubated for 30 mins followed by substrate addition
Sequence of Plasminogen (P00747 97-580 limits assumed): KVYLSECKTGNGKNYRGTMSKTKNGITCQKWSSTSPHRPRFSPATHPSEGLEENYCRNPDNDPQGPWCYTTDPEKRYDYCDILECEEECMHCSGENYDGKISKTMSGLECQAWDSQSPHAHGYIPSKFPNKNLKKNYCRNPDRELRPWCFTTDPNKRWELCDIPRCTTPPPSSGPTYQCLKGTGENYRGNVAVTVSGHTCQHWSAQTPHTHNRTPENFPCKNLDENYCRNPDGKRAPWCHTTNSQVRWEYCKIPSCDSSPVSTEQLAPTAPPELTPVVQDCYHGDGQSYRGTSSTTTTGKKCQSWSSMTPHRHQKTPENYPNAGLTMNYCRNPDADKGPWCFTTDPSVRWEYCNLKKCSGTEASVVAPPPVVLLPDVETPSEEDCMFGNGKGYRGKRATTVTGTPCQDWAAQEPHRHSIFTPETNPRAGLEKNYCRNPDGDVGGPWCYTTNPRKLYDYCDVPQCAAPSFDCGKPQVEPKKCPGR
Sequence of Plasminogen (P00747 581-810 limits assumed): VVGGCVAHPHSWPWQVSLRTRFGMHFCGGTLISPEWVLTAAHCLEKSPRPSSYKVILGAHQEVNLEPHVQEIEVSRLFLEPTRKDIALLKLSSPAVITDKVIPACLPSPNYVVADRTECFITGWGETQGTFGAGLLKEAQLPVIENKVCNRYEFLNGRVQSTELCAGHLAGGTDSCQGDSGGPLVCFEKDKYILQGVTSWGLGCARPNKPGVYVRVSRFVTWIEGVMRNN

Coagulation factor X = Coagulation factor X (Homo sapiens, UniProt P00742); assay: Inhibition of factor 10a (unknown origin) using N-Z-D-Arg-Gly-Arg-pNA as substrate preincubated for 30 mins followed by substrate addition
Sequence of Coagulation factor X (P00742 41-179 limits assumed): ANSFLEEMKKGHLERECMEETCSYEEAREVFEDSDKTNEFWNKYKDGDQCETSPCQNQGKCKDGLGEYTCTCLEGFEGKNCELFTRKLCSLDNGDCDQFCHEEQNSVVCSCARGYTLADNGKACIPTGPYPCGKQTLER
Sequence of Coagulation factor X (P00742 235-488 limits assumed): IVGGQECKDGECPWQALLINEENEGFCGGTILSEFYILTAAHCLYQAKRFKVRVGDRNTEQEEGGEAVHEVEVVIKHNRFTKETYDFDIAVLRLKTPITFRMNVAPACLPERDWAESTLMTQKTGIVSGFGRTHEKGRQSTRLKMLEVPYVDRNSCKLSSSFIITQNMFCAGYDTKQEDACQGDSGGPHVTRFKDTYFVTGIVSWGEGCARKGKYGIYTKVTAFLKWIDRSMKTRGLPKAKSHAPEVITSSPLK

Coagulation factor XII = molecular target: T1, Coagulation factor XII (Homo sapiens, UniProt P00748); assay: Inhibition of factor 12a (unknown origin) using D-Pro-Phe-Arg-pNA as substrate preincubated for 30 mins followed by substrate addition
T1 sequence (P00748 whole entry): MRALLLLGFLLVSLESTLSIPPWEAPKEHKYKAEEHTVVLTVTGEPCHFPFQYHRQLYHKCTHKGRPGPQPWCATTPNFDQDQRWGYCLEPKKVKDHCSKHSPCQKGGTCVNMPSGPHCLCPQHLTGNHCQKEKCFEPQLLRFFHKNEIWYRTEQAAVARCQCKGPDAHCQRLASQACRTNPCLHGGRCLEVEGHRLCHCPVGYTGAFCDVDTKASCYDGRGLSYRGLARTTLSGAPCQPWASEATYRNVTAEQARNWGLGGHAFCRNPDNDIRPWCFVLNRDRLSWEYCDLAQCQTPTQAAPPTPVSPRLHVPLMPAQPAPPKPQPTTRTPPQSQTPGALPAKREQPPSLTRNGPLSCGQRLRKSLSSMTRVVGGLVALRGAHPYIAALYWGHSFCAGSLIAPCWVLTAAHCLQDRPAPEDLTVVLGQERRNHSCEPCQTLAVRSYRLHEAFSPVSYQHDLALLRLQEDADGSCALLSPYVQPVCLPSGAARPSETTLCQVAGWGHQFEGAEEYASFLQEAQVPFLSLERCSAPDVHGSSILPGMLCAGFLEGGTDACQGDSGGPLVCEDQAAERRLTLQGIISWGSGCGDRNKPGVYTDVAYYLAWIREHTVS

[5] = Oral bioavailability in Sprague-Dawley rat plasma at 20 mg/kg administered via gavage measured up to 24 hrs by LC-MS/MS analysis; format: ADME, organism-based
[6] = Cmax in Sprague-Dawley rat plasma at 20 mg/kg administered via oral gavage measured up to 24 hrs by LC-MS/MS analysis; format: ADME, organism-based; parameters: dose 20 mg/kg, route oral

Sequence of Plasma kallikrein (P03952 20-390 limits assumed): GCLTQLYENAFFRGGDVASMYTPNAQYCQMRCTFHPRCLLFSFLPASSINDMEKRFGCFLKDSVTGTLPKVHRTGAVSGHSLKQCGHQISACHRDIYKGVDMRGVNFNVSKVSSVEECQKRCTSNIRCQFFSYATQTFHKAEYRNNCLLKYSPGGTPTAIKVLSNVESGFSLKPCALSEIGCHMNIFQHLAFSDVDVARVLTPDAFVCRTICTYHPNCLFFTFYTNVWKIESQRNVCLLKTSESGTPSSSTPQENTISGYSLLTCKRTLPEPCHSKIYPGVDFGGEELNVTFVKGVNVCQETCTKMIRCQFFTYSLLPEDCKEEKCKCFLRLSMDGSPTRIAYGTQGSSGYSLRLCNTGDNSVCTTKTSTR
Sequence of Plasma kallikrein (P03952 391-638 limits assumed): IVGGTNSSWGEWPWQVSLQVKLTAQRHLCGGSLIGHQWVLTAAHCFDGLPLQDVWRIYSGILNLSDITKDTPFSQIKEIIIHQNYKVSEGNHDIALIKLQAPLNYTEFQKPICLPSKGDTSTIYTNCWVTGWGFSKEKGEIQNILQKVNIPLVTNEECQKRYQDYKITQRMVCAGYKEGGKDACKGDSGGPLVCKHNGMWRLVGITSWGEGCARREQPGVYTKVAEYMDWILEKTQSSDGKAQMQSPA

Row | SMILES | IC50 [1] [µM] | IC50 (Plasma kallikrein) [µM] | IC50 (Prothrombin) [µM] | IC50 [2] [µM] | IC50 (Coagulation factor XI) [µM] | half-life [3] [min] | Papp at 1 µM [4] [×10⁻⁶ cm/s] | IC50 (Plasminogen) [µM] | IC50 (Coagulation factor X) [µM] | IC50 (Coagulation factor XII) [µM] | bioavailability [5] [%] | Cmax [6] [ng/mL]
1 | Cc1nc(N)cc2c1CNC(=O)c1cnn(c1)Cc1ccc(Cn3cccn3)cc1OCC/C=C/CCCO2 | > 200 | 0.153 | > 200 | > 200 | 12.7 | < 5 | < 1 | 9.97 | > 200 | > 200 |  | 
2 | Cc1cc(N)nc2c1CNC(=O)c1cnn(c1)Cc1ccc(Cn3cccn3)cc1OCC/C=C/CCO2 |  | 53.2 |  |  |  |  |  |  |  |  |  | 
3 | Cc1nc(N)ccc1CNC(=O)c1cnn(Cc2ccc(Cn3cccn3)cc2)c1 | 578 | 0.0024 | > 1000 | > 1000 | 106 | 48 | < 1 | > 1000 | > 1000 | > 1000 | 6 | 25
4 | Cc1nc(N)cc2c1CNC(=O)c1cnn(c1)Cc1ccc(Cn3cccn3)cc1OCC/C=C\CCO2 |  | 1.57 |  |  |  |  |  |  |  |  |  | 
5 | Cc1cc(N)nc2c1CNC(=O)c1cnn(c1)Cc1ccc(Cn3cccn3)cc1OCC/C=C\CCO2 |  | > 3000 |  |  |  |  |  |  |  |  |  | 
6 | Cc1nc(N)cc2c1CNC(=O)c1cnn(c1)Cc1ccc(Cn3cccn3)cc1OCCCCCCO2 |  | 8.31 |  |  |  |  |  |  |  |  |  | 
7 | Cc1nc(N)cc2c1CNC(=O)c1cnn(c1)Cc1ccc(Cn3cccn3)cc1OCCCC=CCCO2 (mixture of isomers) | > 200 | 0.0048 | > 200 | > 200 | 11.7 | < 5 |  | 21.4 | > 200 | > 200 |  | 
8 | Cc1nc(N)cc2c1CNC(=O)c1cnn(c1)Cc1ccc(Cn3cccn3)cc1OCC/C=C/CCO2 |  | 1.21 |  |  |  |  |  |  |  |  |  | 
9 | Cc1nc(N)cc2c1CNC(=O)c1cnn(c1)Cc1ccc(Cn3cccn3)cc1OCCC/C=C\CCO2 | > 200 | 0.0423 | > 200 | > 200 | 40.9 | < 5 | < 1 | > 200 | > 200 | > 200 |  | 
10 | Cc1nc(N)cc2c1CNC(=O)c1cnn(c1)Cc1ccc(Cn3cccn3)cc1OCCC/C=C/CCO2 | > 200 | 0.002 | > 200 | > 200 | 3.61 | < 5 | < 1 | > 200 | > 200 | > 200 |  | 

Source: ChEMBL document CHEMBL3875230, “Structure-Guided Design of Novel, Potent, and Selective Macrocyclic Plasma Kallikrein Inhibitors” (ACS Med Chem Lett, 2017)
